Measurements as given in patent US20200181132A1, “QUINOXALINE AND PYRIDOPYRAZINE DERIVATIVES AS PI3K-BETA INHIBITORS” (JANSSEN PHARMACEUTICA NV, priority 2017, published 2020).
Where two headings read alike, the source gives them in different places.

Columns and labels:
[1] = target: T1, PIK3Cα_h (Homo sapiens, UniProt P42336); assay: Enzyme binding assay (KINOMEscan), PIK3Cα; conditions: DiscoveRx
T1 construct: purchased DiscoveRx Corporation
Description: (§1) Enzyme Binding Assays (KINOMEscan®)
(§2) Kinase enzyme binding affinities of compounds disclosed herein were determined using the KINOMEscan technology performed by DiscoveRx Corporation, San Diego, Calif., USA (www.kinomescan.com). Table A reports the obtained Kd values (nM), with the Kd being the inhibitor binding constant: […]

[2] = target: T2, PIK3Cβ_h (Homo sapiens, UniProt P42338); assay: Enzyme binding assay (KINOMEscan), PIK3Cβ; conditions: DiscoveRx
T2 construct: purchased DiscoveRx Corporation
T2 sequence (P42338 whole entry): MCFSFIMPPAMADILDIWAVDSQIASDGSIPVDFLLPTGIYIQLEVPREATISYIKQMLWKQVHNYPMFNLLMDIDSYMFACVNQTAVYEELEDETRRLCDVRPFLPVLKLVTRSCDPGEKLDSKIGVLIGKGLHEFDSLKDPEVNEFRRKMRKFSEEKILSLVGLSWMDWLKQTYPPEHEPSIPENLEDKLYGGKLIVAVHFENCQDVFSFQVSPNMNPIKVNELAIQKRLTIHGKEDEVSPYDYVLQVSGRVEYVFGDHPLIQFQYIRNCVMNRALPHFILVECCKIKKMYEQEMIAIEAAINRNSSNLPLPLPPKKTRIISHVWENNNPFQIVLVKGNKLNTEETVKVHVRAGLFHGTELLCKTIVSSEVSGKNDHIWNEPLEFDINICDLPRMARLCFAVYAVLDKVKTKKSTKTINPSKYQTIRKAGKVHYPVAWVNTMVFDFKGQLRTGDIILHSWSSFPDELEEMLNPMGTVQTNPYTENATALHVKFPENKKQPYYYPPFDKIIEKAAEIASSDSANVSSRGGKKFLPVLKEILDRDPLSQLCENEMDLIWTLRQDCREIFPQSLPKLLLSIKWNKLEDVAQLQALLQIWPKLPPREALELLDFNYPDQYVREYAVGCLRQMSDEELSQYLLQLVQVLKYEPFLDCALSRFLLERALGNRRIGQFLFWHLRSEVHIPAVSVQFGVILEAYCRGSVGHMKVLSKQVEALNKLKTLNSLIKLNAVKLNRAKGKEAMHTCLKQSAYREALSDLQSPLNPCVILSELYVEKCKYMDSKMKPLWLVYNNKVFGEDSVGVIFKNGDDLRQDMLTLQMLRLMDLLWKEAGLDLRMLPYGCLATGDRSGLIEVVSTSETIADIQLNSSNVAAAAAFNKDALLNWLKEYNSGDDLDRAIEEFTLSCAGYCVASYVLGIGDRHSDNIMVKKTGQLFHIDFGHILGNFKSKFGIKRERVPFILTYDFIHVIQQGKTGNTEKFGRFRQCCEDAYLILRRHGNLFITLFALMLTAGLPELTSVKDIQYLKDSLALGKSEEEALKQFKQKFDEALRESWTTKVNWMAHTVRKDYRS
Description: as §1, §2

[3] = target: T3, PIK3Cδ_h (Homo sapiens, UniProt O00329); assay: Enzyme binding assay (KINOMEscan), PIK3Cδ; conditions: DiscoveRx
T3 construct: purchased DiscoveRx Corporation
T3 sequence (O00329 1-1044): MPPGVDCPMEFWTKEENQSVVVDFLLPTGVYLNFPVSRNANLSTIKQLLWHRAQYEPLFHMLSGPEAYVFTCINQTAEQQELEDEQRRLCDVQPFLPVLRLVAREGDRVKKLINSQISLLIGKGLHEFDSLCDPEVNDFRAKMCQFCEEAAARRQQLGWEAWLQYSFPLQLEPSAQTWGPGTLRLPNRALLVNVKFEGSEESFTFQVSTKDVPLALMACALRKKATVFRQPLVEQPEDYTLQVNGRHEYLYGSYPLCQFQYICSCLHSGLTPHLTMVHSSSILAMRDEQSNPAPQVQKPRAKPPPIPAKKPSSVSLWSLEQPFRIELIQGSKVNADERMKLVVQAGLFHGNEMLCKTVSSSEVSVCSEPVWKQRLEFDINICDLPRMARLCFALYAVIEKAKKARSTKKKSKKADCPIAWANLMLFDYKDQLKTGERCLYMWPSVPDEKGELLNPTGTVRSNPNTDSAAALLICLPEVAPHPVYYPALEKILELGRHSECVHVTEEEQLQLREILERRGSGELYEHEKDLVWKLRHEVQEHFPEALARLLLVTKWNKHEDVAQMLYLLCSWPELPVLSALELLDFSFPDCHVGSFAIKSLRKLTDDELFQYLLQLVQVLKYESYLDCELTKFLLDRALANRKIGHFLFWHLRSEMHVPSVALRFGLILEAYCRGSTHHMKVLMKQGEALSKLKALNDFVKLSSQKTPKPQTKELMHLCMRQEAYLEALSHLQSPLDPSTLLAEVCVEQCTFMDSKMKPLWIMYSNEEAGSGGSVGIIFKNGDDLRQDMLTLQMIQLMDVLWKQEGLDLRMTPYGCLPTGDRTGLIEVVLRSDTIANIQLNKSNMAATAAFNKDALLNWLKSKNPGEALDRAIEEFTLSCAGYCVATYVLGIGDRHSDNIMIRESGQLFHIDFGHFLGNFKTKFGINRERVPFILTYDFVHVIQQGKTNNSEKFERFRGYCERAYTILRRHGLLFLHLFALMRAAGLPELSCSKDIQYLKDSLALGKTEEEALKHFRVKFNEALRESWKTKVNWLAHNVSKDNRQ
Description: as §1, §2

[4] = target: T4, PIK3Cγ_h (Homo sapiens, UniProt P48736); assay: Enzyme binding assay (KINOMEscan), PIK3Cγ; conditions: DiscoveRx
T4 construct: purchased DiscoveRx Corporation
T4 sequence (P48736 whole entry): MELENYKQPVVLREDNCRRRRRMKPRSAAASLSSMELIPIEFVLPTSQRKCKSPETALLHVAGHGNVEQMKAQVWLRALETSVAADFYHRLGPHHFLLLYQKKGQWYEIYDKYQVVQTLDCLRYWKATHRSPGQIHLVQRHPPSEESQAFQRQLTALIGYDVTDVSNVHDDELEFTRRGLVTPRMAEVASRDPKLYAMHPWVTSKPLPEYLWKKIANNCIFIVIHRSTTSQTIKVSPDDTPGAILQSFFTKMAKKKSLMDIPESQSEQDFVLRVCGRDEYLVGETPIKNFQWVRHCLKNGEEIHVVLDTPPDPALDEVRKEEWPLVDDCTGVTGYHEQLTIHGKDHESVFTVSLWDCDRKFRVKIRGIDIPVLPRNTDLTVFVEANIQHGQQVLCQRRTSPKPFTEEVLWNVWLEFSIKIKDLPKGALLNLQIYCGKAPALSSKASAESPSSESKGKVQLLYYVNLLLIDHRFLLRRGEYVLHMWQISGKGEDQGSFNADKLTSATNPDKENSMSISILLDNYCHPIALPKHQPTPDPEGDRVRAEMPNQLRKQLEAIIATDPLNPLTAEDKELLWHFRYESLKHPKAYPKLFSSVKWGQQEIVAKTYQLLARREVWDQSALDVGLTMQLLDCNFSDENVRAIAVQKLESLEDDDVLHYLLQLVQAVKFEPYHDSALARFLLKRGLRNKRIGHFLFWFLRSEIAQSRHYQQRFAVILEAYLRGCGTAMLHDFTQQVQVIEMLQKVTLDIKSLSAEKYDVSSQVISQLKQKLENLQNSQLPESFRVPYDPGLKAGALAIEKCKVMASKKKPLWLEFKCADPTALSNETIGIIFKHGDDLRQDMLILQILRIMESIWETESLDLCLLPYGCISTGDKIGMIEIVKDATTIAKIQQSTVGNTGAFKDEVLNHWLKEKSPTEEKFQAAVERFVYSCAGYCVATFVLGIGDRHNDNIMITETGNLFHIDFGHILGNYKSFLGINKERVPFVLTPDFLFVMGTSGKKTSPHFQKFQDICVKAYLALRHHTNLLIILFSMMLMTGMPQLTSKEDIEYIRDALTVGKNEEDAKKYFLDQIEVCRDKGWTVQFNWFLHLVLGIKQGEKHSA
Description: as §1, §2

[5] = target: T5, MTOR_h (Homo sapiens, UniProt P42345); assay: Enzyme binding assay (KINOMEscan), MTOR; conditions: DiscoveRx
T5 construct: purchased DiscoveRx Corporation
Description: as §1, §2

[6] = tested on: phosphorylation of Akt at Ser473 in PC-3 cells; assay: Cellular assay: phospho-Akt (Ser473) MSD ELISA in PC-3 cells; assay type: cell-based; conditions: 60 min incubation with compound, read-out: IC50 pAkt_S473
Description: (§3) Cellular activity of PI3Kβ inhibitors was determined by quantifying the phosphorylation of Akt in PC-3 cells. Akt phosphorylated at Ser473 and Thr308 were measured using an enzyme-linked immunosorbent assay (ELISA; Meso Scale Discovery (MSD), Gaithersburg, Md.) and specific primary antibodies from MSD.
(§4) On day 1, PC3 cells (ATCC # […]) were seeded into PerkinElmer MW96 plates at 25.000 cells per well, in 75 μl complete culture medium (DMEM high glucose, AQmedia™, D0819, Sigma-Aldrich) containing 10% heat inactivated FCS and incubated at 37° C., 5% CO2 during 24 hours. On day 2, compound or DMSO (0.3%) was added and cells were further incubated for 60 min at 37° C., 5% CO2 in a total volume of 100 μl of medium.
(§5) The phosphoprotein assay was executed according to vendor instructions in the Phospho-Akt (Ser473) Assay Whole Cell Lysate Kit (MSD # K15100D-3) and the Phospho-Akt (Thr308) Assay Whole Cell Lysate Kit (MSD # K151DYD-3) using the lysis, blocking and wash buffer provided.
(§6) Briefly, at the end of the cell treatment period, media were removed by aspiration and adherent cells were lysed in 50 μl ice-cold lysis buffer. MSD plates are supplied pre-coated with capture antibodies for Phospho-Akt (Ser473 and Thr308). After blocking, lysates from tissue culture plates were added and plates were washed. Then, a solution containing the detection antibody (anti-total Akt conjugated with an electrochemiluminescent compound-MSD Sulfo-tag label) was added. The signals were detected using an MSD SECTOR Imager 6000 and are proportional to the phospho-Akt titres.
(§7) Data were processed. The percentage of inhibition was plotted against the log concentration of test compounds, and the sigmoidal log concentration-effect curve of best fit was calculated by nonlinear regression analysis. From these concentration-response curves, the IC50 values were calculated. Five concentrations were used for curve fitting.

[7] = tested on: phosphorylation of Akt at Thr308 in PC-3 cells; assay: Cellular assay: phospho-Akt (Thr308) MSD ELISA in PC-3 cells; assay type: cell-based; conditions: 60 min incubation with compound, read-out: IC50 pAkt_Thr308
Description: as §3, §4, §5, §6, §7

T1 sequence (P42336 whole entry): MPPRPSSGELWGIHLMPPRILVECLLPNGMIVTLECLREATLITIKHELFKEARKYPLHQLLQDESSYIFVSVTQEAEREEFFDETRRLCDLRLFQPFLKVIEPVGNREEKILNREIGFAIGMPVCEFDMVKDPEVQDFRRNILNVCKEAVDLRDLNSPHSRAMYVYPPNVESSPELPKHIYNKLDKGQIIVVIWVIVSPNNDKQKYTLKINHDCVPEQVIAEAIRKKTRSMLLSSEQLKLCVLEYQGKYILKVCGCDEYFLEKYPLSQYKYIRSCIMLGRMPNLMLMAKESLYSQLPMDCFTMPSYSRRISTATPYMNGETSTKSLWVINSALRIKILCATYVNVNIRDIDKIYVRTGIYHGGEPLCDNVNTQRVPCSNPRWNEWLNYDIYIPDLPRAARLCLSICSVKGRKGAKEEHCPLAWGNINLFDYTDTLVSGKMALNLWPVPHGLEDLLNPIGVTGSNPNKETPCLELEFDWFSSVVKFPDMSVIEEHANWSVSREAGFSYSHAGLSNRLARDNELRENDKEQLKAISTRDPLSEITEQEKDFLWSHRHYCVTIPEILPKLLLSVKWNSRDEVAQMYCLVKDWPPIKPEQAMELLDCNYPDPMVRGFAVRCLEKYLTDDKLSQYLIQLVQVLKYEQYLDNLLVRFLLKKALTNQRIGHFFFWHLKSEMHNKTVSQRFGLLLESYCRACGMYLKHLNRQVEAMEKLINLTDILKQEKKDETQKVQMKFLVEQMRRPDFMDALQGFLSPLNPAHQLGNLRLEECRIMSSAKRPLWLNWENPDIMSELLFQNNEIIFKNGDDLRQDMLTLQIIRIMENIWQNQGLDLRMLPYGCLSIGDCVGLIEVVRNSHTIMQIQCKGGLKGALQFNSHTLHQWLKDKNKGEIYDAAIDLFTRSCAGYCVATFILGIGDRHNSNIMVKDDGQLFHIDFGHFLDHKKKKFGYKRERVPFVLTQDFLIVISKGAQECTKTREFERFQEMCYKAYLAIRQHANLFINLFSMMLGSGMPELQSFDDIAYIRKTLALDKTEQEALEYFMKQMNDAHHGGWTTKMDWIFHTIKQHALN

| SMILES | Kd [1] | Kd [2] | Kd [3] | Kd [4] | Kd [5] | IC50 ([6]; Homo sapiens, PC-3, 1 h) | IC50 [7] | melting point | IC50 [6] | IC50 ([7]; Homo sapiens, PC-3, 1 h) |
| --- | --- | --- | --- | --- | --- | --- | --- | --- | --- | --- |
| CC(Nc1cncc(F)c1)c1cc(C(=O)N2CC3(C2)CS(=O)(=O)C3)cc2ncc(N3CCOCC3)nc12 (single isomer, unassigned) [Compound 31] | 2820 nM | 9 nM | 1480 nM | 16600 nM | > 30200 nM | > 513 nM | ~72 nM | 160 °C |  |  |
| CC(Nc1cncc(F)c1)c1cc(C(=O)N2CC3(C2)CS(=O)(=O)C3)cc2ncc(N3CCOCC3)nc12 (single isomer, unassigned) [Compound 32] | > 30200 nM | 5490 nM | 22400 nM | > 30200 nM | > 30200 nM |  | > 513 nM | 180 °C | > 513 nM |  |
| CC(Nc1cncc(F)c1)c1cc(C(=O)NCCN(C)C)cc2ncc(N3CCOCC3)nc12 (single isomer, unassigned) [Compound 34] | 2190 nM | 0.4 nM | 166 nM | 3890 nM | > 30200 nM |  | 7 nM | 194 °C | 14 nM |  |
| CC(Nc1cncc(F)c1)c1cc(C(=O)NCCN(C)C)cc2ncc(N3CCOCC3)nc12 (single isomer, unassigned) [Compound 35] | 15500 nM | 8 nM | 1440 nM | 4790 nM | 12000 nM |  | > 513 nM | 190 °C | > 513 nM |  |
| CN(C)CCNC(=O)c1cc(C2CCCN2c2ccnc(F)c2)c2nc(N3CCOCC3)cnc2c1 (single isomer, unassigned) [Compound 39] | 19100 nM | 1070 nM | 31600 nM | > 30200 nM | 19500 nM |  | > 513 nM |  | > 513 nM |  |
| CN(C)CCNC(=O)c1cc(C2CCCN2c2cncc(F)c2)c2nc(N3CCOCC3)cnc2c1 (single isomer, unassigned) [Compound 40] |  | 0.2 nM | 120 nM | 1050 nM | > 30200 nM | 2 nM |  |  |  | 2 nM |
| COC(=O)c1cc(C(C)Nc2cncc(F)c2)c2nc(N3CCOCC3)cnc2c1 (centres unmarked) [Compound 6] |  |  |  |  |  |  |  | 240 °C |  |  |
| O=C(NCCO)c1cc(NCc2cncc(F)c2)c2nc(N3CCOCC3)cnc2c1 [Compound 29] |  |  |  |  |  | > 513 nM |  | 198 °C |  | > 513 nM |
| CN(C)C(=O)c1cc(C2CCCN2c2cncc(F)c2)c2nc(N3CCOCC3)cnc2c1 (centres unmarked) [Compound 41] | 209 nM | 0.8 nM | 52 nM | 1050 nM | > 30200 nM | ~17 nM |  |  |  | 3 nM |
| CN(C)CCN(C)C(=O)c1cc(C2CCCN2c2cncc(F)c2)c2nc(N3CCOCC3)cnc2c1 (centres unmarked) [Compound 42] | 646 nM | 0.5 nM | 46 nM | 2630 nM | > 30200 nM | 2 nM |  |  |  | 1 nM |
| CN(C)CCNC(=O)c1cc(C2CCCN2c2cc(Cl)cc(Cl)n2)c2nc(N3CCOCC3)cnc2c1 (centres unmarked) [Compound 45] | 479 nM | 0.3 nM | 32 nM | 457 nM | 12300 nM | 7 nM |  |  |  | 4 nM |
| CN(C)CCNC(=O)c1cc(C2CCCN2c2ccnc(Cl)c2)c2nc(N3CCOCC3)cnc2c1 (centres unmarked) [Compound 46] | 13500 nM | 2 nM | 550 nM | 19500 nM | > 30200 nM | 102 nM |  |  |  | 66 nM |
| O=C(NCCO)c1cc(C2CCCN2c2ccnc(Cl)c2)c2nc(N3CCOCC3)cnc2c1 (centres unmarked) [Compound 47] | 17000 nM | 32 nM | 1950 nM | 20900 nM | 21900 nM | > 513 nM |  |  |  | > 513 nM |
| CNCCOCCN(C)C(=O)c1cc(C2CCCN2c2ccnc(Cl)c2)c2nc(N3CCOCC3)cnc2c1 (centres unmarked) [Compound 49] | > 30200 nM | 28 nM | 2460 nM | > 30200 nM | > 30200 nM | > 513 nM |  |  |  | > 513 nM |
| CN(C)CCNC(=O)c1cc(C2CCCN2c2cncc(Cl)n2)c2nc(N3CCOCC3)cnc2c1 (centres unmarked) [Compound 50] | 1660 nM | 0.9 nM | 162 nM | 3310 nM | > 30200 nM | 19 nM |  |  |  | 12 nM |
| CN(C)CCNC(=O)c1cc(C2CCCN2c2cncc(Br)n2)c2nc(N3CCOCC3)cnc2c1 (centres unmarked) [Compound 51] | 9120 nM | 20 nM | 3470 nM | > 30200 nM | > 30200 nM | > 513 nM |  |  |  | > 513 nM |
| CN(C)CCNC(=O)c1cc(C2CCCN2c2cncc(F)n2)c2nc(N3CCOCC3)cnc2c1 (centres unmarked) [Compound 52] |  |  |  |  |  | > 513 nM |  |  |  | > 513 nM |
